Patent US8598132B2, “Glycosylated indolocarbazoles, method for obtaining same and uses thereof” (Universidad de Oviedo, priority 2008, dated 2013)

Tests used:
FGFR1 = biological target: T1, FGFR1 (Homo sapiens, UniProt P11362); experiment: LabChip (Caliper) kinase assay, FGFR1; type: biochemical; conditions: for inhibition at 0.01 µM: compound at 10 nM; for inhibition at 0.01 µM / inhibition at 0.1 µM: read-out: remaining kinase activity (in %) / percentage of inhibition; for inhibition at 0.1 µM: compound at 100 nM; for IC50: ATP at Km, read-out: CI50 (the source's name)
T1 construct: purchased Upstate
Protocol: The analysis of kinase activity described here was performed using LabChip (Caliper Life Sciences), specifically the Caliper LC3000 and the EZ Reader II instruments.
The kinase assay used measures the conversion of a fluorescent peptide (substrate) to a phosphorylated product. The reaction mixture, in a microplate well, is introduced by a capillary in a chip where the non-phosphorylated substrate and the phosphorylated product are separated by […]. The intensity of the fluorescent signal over time is related to the reaction progress. The phosphorylated product migrates quicker than the non-phosphorylated substrate and the signals of the two forms of the peptide appear as differentiated peaks. The Caliper determines the peak height and calculates the ratio of product to the peak sum (P/(P+S)). This value is used to compare wells with compounds and wells with controls and thus determine the % of inhibition for the given product.
The followings kinases were used for the enzymatic inhibition studies, between brackets the value of the Michaelis-Menten constant, Km, of the ATP (Adenosine triphosphate) for each kinase, in μM: obtained from Carna Biosciences: MAPKAPK2 (4.6), AurA (3.6), AurB (5), PKCζ (3.8), RSK1 (23.3), PRAK (5), Erk1 (33.4), PKD2 (32.1), CK1d (16.3), CHK1 (33), ABL (61.7), FYN (36), LYNa (17), CHK2 (57.8), MET (79.5), LCK (28.5), SRC (38), GSK3β (7.3), Erk2 (62.1), PKACα (1.7), AKT2 (186.1), INSR (871.8), p38a (396.5), AKT1(48), MSK1 (21.2), PKCβ2 (84.8), ROCK2 (3.3), PIM2 (4.9), AMPK (38.6), KDR (164.8), IRAK4 (196.5), SGK1 (121.8), SYK (33.5); obtained from Invitrogen: CDK2 (57.6), BTK (123), HGK (80); obtained from Upstate: MST2 (36.6), PKGα (16), PAK2 (1.9), IGF1R (320), FGFR1 (171), MARK1 (33), CAMK2δ (22.4), c-TAK1 (66), DYRK1a (18.1), CaMK4 (3.9), FLT3 (350), c-Raf (6.2), P70S6K (95).
The compounds were dissolved in 100% DMSO and were diluted at 25 times the final concentration desired for the assay. In the case of the determination of Cl50, serial dilutions were made to reach eight concentrations and give rise to the inhibition curve. 1 μL of each concentration is transferred, in duplicate to a 384-well microplate. 12 μL of enzymatic buffer is added to each well containing purified kinase (several suppliers as indicated above), 100 mM HEPES, pH 7.5, 1 mM DTT (Calbiochem), 0.002% Brij-35 (Sigma) and also in presence of 10 mM MgCl2 as cofactor, except for INSR and IRAK4 wherein 10 mM MnCl2 is used instead of MgCl2. For the kinases CAMK26 and CAMK4, 1 mM CaCl2 and 6.7 μg/mL of calmodulin are also added. For KDR kinase, 0.05% of the CHAPSO detergent is added. For the c-Raf kinase, 10 mM MnCl2 is added. For PKCβ2 0.02 μg/mL of PS/PMA is added. For PKGα se 10 μM of cGMP (cyclic guanosine monophosphate) is added. The compound and the enzyme are left for 15 minutes preincubation and, then, the following are added to each well: 12 μL of peptide buffer/ATP containing 100 mM HEPES, pH 7.5, 1.5 μM peptide marker with fluorescein (specific for the corresponding kinase), ATP (at concentration KM), and 0.002% Brij-35 to start the reaction. Generally, the reactions are incubated for 1-1.5 h at ambient temperature to obtain an adequate conversion (15-40%) of the peptide to the phosphorylated product. The reactions were ended by the addition of 45 μL of buffer containing 0 mM EDTA. The microplates were read by the LabChip 3000 using a 12-channel LabChip. The P/(P+S) values were obtained as described above and the CI50 curves were generated using XIfit.
Table 9a has the 0150 data obtained in pairs of compound-kinase selected from the compounds of formula (VII), (VIII), (IX), (XVI), (XVII) and (XVIII) after taking inhibition measurements at 100 nM and 10 nM. Those couples that provide >70% of inhibition at 10 nM were consider for measuring its IC50. […]

MDA-MB-231 (breast) = experiment: SRB anti-tumour (growth inhibition) assay, MDA-MB-231; type: cell-based; conditions: Homo sapiens, 48 h exposure, read-out: GI50 (concentration inhibiting 50% of cell growth)
Protocol: The compounds generated were tested against a series of cell lines from tumours. It quantitatively determined the cell growth and the viability, using a colorimetric assay type, using the reaction with sulforhodamine B (SRB), according to the technique described by Faircloth et al. (Journal of Tissue and Culture Methods 1988, 11, 201-205).
96-well microtitre plates are inoculated with cells (5×10^3 cells per well) in aliquots of 195 μl of medium, incubating them during 18 h, in a medium without added compound, to allow the cells to adhere to the surface. Next, the compounds to be tested are added, in samples of 5 μl, at a range of concentrations of 10 to 10^−8 μg/ml, dissolved in DMSO/EtOH (0.2% in PS buffer). After 48 h exposure, the anti-tumour effect is measured using the Sulforhodamine B (SRB) technique: the cells are fixed adding 50 μl of cold […] (50%) (w/v) and it is incubated for 60 min. at 4° C. The plates are washed with deionized water and dried. 100 μl of SRB solution (0.4% w/v in 1% acetic acid) to each well and it is incubated during 10 min. at ambient temperature. The non-bound SRB is eliminated, washing with 1% acetic acid. The plates are air dried and the bound colorant is dissolved with Tris buffer. The optical densities are read in an automatic plate spectrophotometer reader at a wavelength of 490 nm.
For the compounds of formula (III), (IV), (V), (VI), (VII), (VIII), (IX) and the compounds of formula (XII), (XIII), (XIV), (XV), (XVI) and (XVIII).

T1 sequence (P11362 22-822, species assumed): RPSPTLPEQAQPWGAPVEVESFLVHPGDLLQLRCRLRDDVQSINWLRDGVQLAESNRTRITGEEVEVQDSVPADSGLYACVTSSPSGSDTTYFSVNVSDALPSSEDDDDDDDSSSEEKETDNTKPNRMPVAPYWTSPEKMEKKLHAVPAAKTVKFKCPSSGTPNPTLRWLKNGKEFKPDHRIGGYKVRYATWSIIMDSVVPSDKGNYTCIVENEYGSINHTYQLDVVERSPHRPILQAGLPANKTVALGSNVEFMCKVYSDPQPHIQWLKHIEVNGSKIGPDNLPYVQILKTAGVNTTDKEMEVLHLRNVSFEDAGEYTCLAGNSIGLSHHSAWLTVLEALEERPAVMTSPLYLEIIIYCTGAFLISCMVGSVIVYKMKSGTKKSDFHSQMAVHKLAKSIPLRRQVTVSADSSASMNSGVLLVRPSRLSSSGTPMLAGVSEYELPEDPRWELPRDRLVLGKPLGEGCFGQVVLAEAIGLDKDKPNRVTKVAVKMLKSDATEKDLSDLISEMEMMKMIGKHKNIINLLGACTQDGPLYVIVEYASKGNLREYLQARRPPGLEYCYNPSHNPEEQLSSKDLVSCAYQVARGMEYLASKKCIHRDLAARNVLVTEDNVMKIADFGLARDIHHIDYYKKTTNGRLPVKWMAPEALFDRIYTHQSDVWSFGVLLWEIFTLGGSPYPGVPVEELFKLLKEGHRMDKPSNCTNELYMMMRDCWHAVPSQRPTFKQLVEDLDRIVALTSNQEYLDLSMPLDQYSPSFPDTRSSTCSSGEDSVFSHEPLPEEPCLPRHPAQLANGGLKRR

Row | SMILES | inhibition at 0.01 µM (FGFR1) [%] | inhibition at 0.1 µM (FGFR1) [%] | GI50 (MDA-MB-231 (breast)) [nM] | IC50 (FGFR1) [nM]
1 | C[C@@H]1O[C@@H](n2c3ccccc3c3c4c(c5c6ccccc6[nH]c5c32)C(=O)NC4=O)C[C@H](O)[C@H]1O [formula (IV), N^13-1′-β-L-olivosylarcyriaflavin] | 3 | 21 | 14100 | –
2 | C[C@]12O[C@H](C[C@H](O)[C@H]1O)n1c3ccccc3c3c4c(c5c6ccccc6n2c5c31)C(=O)NC4=O [formula (VIII), N^12-5′(S)-N^13-1′-(R)-L-olivosylarcyriaflavin] | – | – | 7500 | –
3 | C[C@H]1O[C@@H](n2c3ccccc3c3c4c(c5c6ccccc6[nH]c5c32)CNC4=O)C[C@@H](O)[C@@H]1O [formula (XV), N^13-1′-β-D-olivosyl-k252c] | -2 | 7 | 3170 | –
4 | C[C@]12O[C@H](C[C@@H](O)[C@H]1O)n1c3ccccc3c3c4c(c5c6ccccc6n2c5c31)CNC4=O [formula (XVIII), N^12-5′(S)-N^13-1′-(R)-L-digitoxosyl-k252c] | – | – | 1840 | > 100
5 | C[C@]12O[C@H](C[C@H](O)[C@H]1O)n1c3ccccc3c3c4c(c5c6ccccc6n2c5c31)CNC4=O [formula (XVII), N^12-5′(S)-N^13-1′-(R)-L-olivosyl-k252c] | – | – | 1050 | > 10
6 | C[C@@H]1O[C@@H](n2c3ccccc3c3c4c(c5c6ccccc6[nH]c5c32)CNC4=O)[C@H](O)[C@H](O)[C@H]1O [formula (XII), N^13-1′-β-L-rhamnosyl-k252c] | 1 | 5 | 1970 | –
7 | C[C@@H]1O[C@@H](n2c3ccccc3c3c4c(c5c6ccccc6[nH]c5c32)CNC4=O)C[C@@H](O)[C@H]1O [formula (XIV), N^13-1′-β-L-digitoxosyl-k252c] | 1 | 5 | 2490 | –
8 | C[C@]12O[C@H](C[C@@H](O)[C@H]1O)n1c3ccccc3c3c4c(c5c6ccccc6n2c5c31)C(=O)NC4=O [formula (IX), N^12-5′(S)-N^13-1′-(R)-L-digitoxosylarcyriaflavin] | – | – | 8160 | > 10
9 | C[C@@H]1O[C@@H](n2c3ccccc3c3c4c(c5c6ccccc6[nH]c5c32)CNC4=O)C[C@H](O)[C@H]1O [formula (XIII), N^13-1′-β-L-olivosyl-k252c] | -1 | 7 | 1430 | –
10 | C[C@]12O[C@H]([C@H](O)[C@H](O)[C@H]1O)n1c3ccccc3c3c4c(c5c6ccccc6n2c5c31)C(=O)NC4=O [formula (VII), N^12-5′(S)-N^13-1′-(R)-L-rhamnosylarcyriaflavin] | – | – | 1350 | 8.9
11 | C[C@]12O[C@H]([C@H](O)[C@H](O)[C@H]1O)n1c3ccccc3c3c4c(c5c6ccccc6n2c5c31)CNC4=O [formula (XVI), N^12-5′(S)-N^13-1′-(R)-L-rhamnosyl-k252c] | – | – | 590 | –
12 | C[C@@H]1O[C@@H](n2c3ccccc3c3c4c(c5c6ccccc6[nH]c5c32)C(=O)NC4=O)C[C@@H](O)[C@H]1O [formula (V), N^13-1′-β-L-digitoxosylarcyriaflavin] | 7 | 34 | 4190 | –
13 | C[C@@H]1O[C@@H](n2c3ccccc3c3c4c(c5c6ccccc6[nH]c5c32)C(=O)NC4=O)[C@H](O)[C@H](O)[C@H]1O [formula (III), N^13-1′-β-L-rhamnosylarcyriaflavin] | 3 | 4 | 4400 | –
14 | C[C@H]1O[C@@H](n2c3ccccc3c3c4c(c5c6ccccc6[nH]c5c32)C(=O)NC4=O)C[C@@H](O)[C@@H]1O [formula (VI), N^13-1′-β-D-olivosylarcyriaflavin] | 1 | 25 | 2430 | –
